{"source": "patent US6855669B2", "about": "“Use of α,β unsaturated aliphatic aldehydes and ketones to inhibit potato tuber sprouting” (Washington State University Research Foundation, priority 2000, dated 2005)", "assay_type_in_all_cases": "in vivo, Solanum tuberosum", "key": {"[1]": {"system": "Russet Burbank and Ranger Russet seed-tubers", "test": "Example 5: sprout inhibition by C5 to C9 trans-2 aldehydes over prolonged storage (17 weeks)", "conditions": "0.5, 0.75 and 1.0 mmol/kg tuber, 24 hours, 17 weeks at 8° C.; for inhibition of sprout development (in words): 95% RH", "procedure": "(46° F.), 95% relative humidity (RH), for 17 weeks. As described more fully in Example 5, four-month-old tubers (previously stored at 4° C.) were treated (for 24 h) with different concentrations of the aldehydes in mid January. The treated tubers were then stored in the dark for 120 days (17 weeks).\nMethods: Four-month-old Russet Burbank and Ranger Russet seed-tubers were taken from a 4° C. storage area and treated (Jan. 10, 2001) separately with 0, 0.5, 0.75 and 1.0 mmol/kg tuber of trans-2-pentenal, trans-2-hexenal, trans-2-heptenal, trans-2-octenal, and trans-2-nonenal in 3.9 L glass jars. The volume of inhibitor required to achieve the above rates was pipetted onto filter paper discs inside the lids of each jar. The concentration of inhibitors in the headspace of the jars was equal at 0.16 mmol/L. The tubers were enclosed in the jars and thus exposed to inhibitor vapor for 24 hours at 23° C. Control tubers were enclosed in a glass jar without any aldehyde. Following treatment, tubers were removed from the jars and placed at 8° C. (46° F.) (95% relative humidity) in the dark to sprout for 120 days (17 weeks). The experiment was set up in a randomized complete block design (5 replicates) with chemicals and concentrations arranged factorially. Effects of the aliphatic aldehydes on the development of etiolated sprouts were documented photographically and quantitatively (sprout number and fresh weight) after 120 days of storage."}, "[2]": {"system": "Russet Burbank seed tubers", "test": "Example 4: sprout inhibition by aldehyde vapors, 26 days of sprouting", "conditions": "12 hours vapor, 26 days at 18° C.", "procedure": "Methods: Eleven-month-old Russet Burbank seed tubers were taken from a 4° C. storage area and exposed to trans-2-hexenal (0.6-4.3 mmol/kg), trans-2-heptenal (0.6-3.8 mmol/kg) and trans-2-octenal (0.5-2.5 mmol/kg) vapors separately in 3.9 L glass containers for 12 hours at 23° C. The aldehydes were applied to filter paper inside petri dishes within each jar. Control tubers were enclosed in a glass container without any aldehyde. Sprouts were ‘peeping’ (approximately 3 mm in length) at the time of treatment. Following treatment, tubers were placed at 18° C. (95% relative humidity) in the dark to sprout for 26 days. The experiment was set up in a randomized complete block design (5 replicates) with chemicals and concentrations arranged factorially. Effects of the aliphatic aldehydes on the development of etiolated sprouts were documented at 20 days (photographically) and 26 days of sprouting."}, "Russet Burbank tubers": {"system": "Russet Burbank tubers", "test": "Example 6: reconditioning, sprout fresh weight and fry color", "conditions": "0.45 mmol/kg", "procedure": "Seven-month-old tubers from 4° C. (40° F.) storage were treated with 0.45 mmol/kg trans-2-nonenal for 17 hours at 23° C. The tubers were then placed at 14° C. (57° F.) to recondition. French fries were processed from the tubers through four weeks of reconditioning. Fry color (lightness or darkness) was quantified with a photovolt reflectance meter. High photovolt values indicate light-colored fries (high processing quality). Low photovolt values indicate low-quality, dark-colored fries.\nMethods: Russet Burbank tubers were stored at 7° C. (44° F.) from harvest Oct. 29, 2000 to Jan. 26, 2001. The tubers were transferred to 4° C. (40° F.) on Jan. 26, 2001, until treatment on Apr. 2, 2001. Tubers were treated with 0.45 mmol/kg trans-2-nonenal in 9.2 L glass desiccators for 17 hours at 23° C. Following treatment, the tubers were placed at 14° C. (57° F.) to recondition for 0, 1, 2, 3 and 4 weeks. […] Fry darkness of the apical and basal ends of the fries was quantified with a photovolt reflectance meter within three minutes of frying. A high reflectance reading (photovolt unit) indicates light fry color due to a relatively low sugar level and thus a high-quality processed product. Conversely, a low reflectance reading indicates dark fry color due to high sugar content, resulting in low processing quality. […] Sprout fresh weight and fry color were recorded."}}}
{"smiles": "CCCC/C=C/C=O", "note": "[trans-2-heptenal]", "values": [{"measurement": "inhibition of sprout development (in words)", "setting": "[1]", "result": "inhibited sprouting in a concentration-dependent manner"}, {"measurement": "Average Sprout Length", "setting": "[2]; 0.56 mmol/kg", "result": 0.2, "unit": "cm/tuber"}, {"measurement": "Sprout Fresh Weight", "setting": "[2]; 0.56 mmol/kg", "result": 0.01, "unit": "g/tuber"}, {"measurement": "Average Sprout Length", "setting": "[2]; 1.11 mmol/kg", "result": 0, "unit": "cm/tuber"}, {"measurement": "Sprout Fresh Weight", "setting": "[2]; 1.11 mmol/kg", "result": 0, "unit": "g/tuber"}, {"measurement": "Average Sprout Length", "setting": "[2]; 1.69 mmol/kg", "result": 0, "unit": "cm/tuber"}, {"measurement": "Sprout Fresh Weight", "setting": "[2]; 1.69 mmol/kg", "result": 0, "unit": "g/tuber"}, {"measurement": "Average Sprout Length", "setting": "[2]; 2.16 mmol/kg", "result": 0, "unit": "cm/tuber"}, {"measurement": "Sprout Fresh Weight", "setting": "[2]; 2.16 mmol/kg", "result": 0, "unit": "g/tuber"}, {"measurement": "Average Sprout Length", "setting": "[2]; 3.85 mmol/kg", "result": 0, "unit": "cm/tuber"}, {"measurement": "Sprout Fresh Weight", "setting": "[2]; 3.85 mmol/kg", "result": 0, "unit": "g/tuber"}]}
{"smiles": "CCCCCC/C=C/C=O", "note": "[trans-2-nonenal]", "values": [{"measurement": "external pitting damage to the periderm (in words)", "setting": "[1]", "result": "did not induce external pitting damage"}, {"measurement": "inhibition of sprout development (in words)", "setting": "[1]", "result": "totally inhibited sprout development"}, {"measurement": "sprouts produced (fresh weight)", "setting": "Russet Burbank tubers; 17 hours at 23° C., four weeks of reconditioning at 57° F.", "result": 13.5, "unit": "g fresh weight/12 tubers"}, {"measurement": "processing quality (fry color, photovolt reflectance) (in words)", "setting": "Russet Burbank tubers; from 2 to 4 weeks of reconditioning at 57° F.", "result": "continued to increase"}]}
{"smiles": "CCCCC/C=C/C=O", "note": "[trans-2-octenal]", "values": [{"measurement": "external pitting damage to the periderm (in words)", "setting": "[1]", "result": "did not induce external pitting damage"}, {"measurement": "inhibition of sprout development (in words)", "setting": "[1]", "result": "totally inhibited sprout development"}, {"measurement": "Average Sprout Length", "setting": "[2]; 0.50 mmol/kg", "result": 0, "unit": "cm/tuber"}, {"measurement": "Sprout Fresh Weight", "setting": "[2]; 0.50 mmol/kg", "result": 0, "unit": "g/tuber"}, {"measurement": "Average Sprout Length", "setting": "[2]; 0.97 mmol/kg", "result": 0, "unit": "cm/tuber"}, {"measurement": "Sprout Fresh Weight", "setting": "[2]; 0.97 mmol/kg", "result": 0, "unit": "g/tuber"}, {"measurement": "Average Sprout Length", "setting": "[2]; 1.44 mmol/kg", "result": 0, "unit": "cm/tuber"}, {"measurement": "Sprout Fresh Weight", "setting": "[2]; 1.44 mmol/kg", "result": 0, "unit": "g/tuber"}, {"measurement": "Average Sprout Length", "setting": "[2]; 1.93 mmol/kg", "result": 0.2, "unit": "cm/tuber"}, {"measurement": "Sprout Fresh Weight", "setting": "[2]; 1.93 mmol/kg", "result": 0.10, "unit": "g/tuber"}, {"measurement": "Average Sprout Length", "setting": "[2]; 2.48 mmol/kg", "result": 0.2, "unit": "cm/tuber"}, {"measurement": "Sprout Fresh Weight", "setting": "[2]; 2.48 mmol/kg", "result": 0.13, "unit": "g/tuber"}]}
{"smiles": "CC/C=C/C=O", "note": "[trans-2-pentenal]", "values": [{"measurement": "inhibition of sprout development (in words)", "setting": "[1]", "result": "inhibited sprouting in a concentration-dependent manner"}]}
